Test results taken from patent publication US8741964B2, “Uses of nonenal” (Industry-Academic Cooperation Foundation, Yonsei University, priority 2011, dated 2014).

Experiments:
C57BL/6J mice [1] = experiment: Body weight, food intake and visceral fat-pad weights of mice fed test diets for 10 weeks; type: in vivo
Source text: (§1) The obesity-inducing control diet used in the test was high-fat diet (HFD: 40% fat calorie, 17 g lard+3% corn oil/100 g diet). Diets supplemented with nonenal (nonenal-supplemented high fat diet, NED) had the same composition as HFD, except that nonenal was included at 0.2% (see Table 1). The normal diet group (Chow) was fed with commercially available rodent chow. Nonenal was purchased from Sigma-Aldrich.
(§2) 5-week-old male C57BL/6J mice (Orient, Korea) were accustomed to the laboratory environment for 1 week while feeding solid feed. Then, they were randomly divided into normal diet, high-fat diet and test groups and bred for a total of 10 weeks. The diet was given between 10 and 11 a.m. every day together with water. Food intake was measured every day and body weight was measured once a week. In order to avoid transient body weight increase after feed intake, body weight was measured 2 hours after removing the feed. After fasting the test animal for at least 12 hours and anesthetizing with diethyl ether, blood, liver and visceral fat (epididymal fat, perirenal fat, mesenteric fat and retroperitoneal fat) were taken and weighed after washing with 0.1 M PBS (pH 7.4). Blood taken from the abdominal aorta was centrifuged at 1000×g for 15 minutes for the separation of plasma.

C57BL/6J mice [2] = experiment: Biochemical analysis of blood (plasma lipids, glucose, ALT, AST) of mice fed test diets; type: in vivo; details: 10 weeks
Source text: as §1, §2
After 10 weeks of breeding, total cholesterol, triglyceride and glucose levels in the plasma and lipid levels in the liver tissue were measured as follows. Total cholesterol, triglyceride, free fatty acid and glucose levels in the plasma were measured twice for each using a commercially available kit (Bio Clinical System). The activity of ALT (alanine aminotransferase) and AST (aspartate aminotransferase) used as liver function indicator were measured twice for each using a commercially available kit (Bio Clinical System, Korea).

C57BL/6J mice [3] = experiment: Analysis of lipid level in liver tissues of mice fed test diets; type: in vivo; details: 0.2% nonenal in high-fat diet, 10 weeks, as compared to HFD
Source text: as §1, §2
Lipids were extracted from the liver tissue according to Folch et al.'s method Folch J et al., J Biol. Chem. 226: 497-509 (1957)). After adding 1 mL of distilled water to 0.25 g of liver tissue, the liver tissue was homogenized using a Polytron homogenizer (IKA-Werke GmbH & Co., Ultra-Turrax, Staufen, Germany). After adding 5 mL of chloroform:methanol solution (2:1, v/v) to the homogenate and mixing well, the mixture was centrifuged at 1000×g for 10 minutes. After adding 2 mL of chloroform:methanol solution (2:1, v/v) again to the supernatant, the same procedure was repeated to completely separate the lipid components of the liver. […] The dried lipids were dissolved in 1 mL of methanol and then analyzed. […]

C/EBPα = experiment: RT-PCR analysis of visceral fat tissues: C/EBPα gene expression; type: in vivo, mice; details: nonenal supplemented to the HFD vs HFD; to levels similar for the Chow group
Source text: as §1
(§3) 5-week-old male C57BL/6J mice (Orient, Korea) were accustomed to the laboratory environment for 1 week while feeding solid feed. Then, they were randomly divided into normal diet, high-fat diet and test groups and bred for a total of 10 weeks. The diet was given between 10 and 11 a.m. every day together with water. Food intake was measured every day and body weight was measured once a week. In order to avoid transient body weight increase after feed intake, body weight was measured 2 hours after removing the feed. […]
(§4) After adding 1 mL of Trizol agent per 0.1 g of visceral fat tissues, the mixture was homogenized and centrifuged at 12,000×g for 10 min at 4° C. […] The RNA sample concentration was measured at a wavelength of 260 nm and 280 nm using a UV/VIS spectrophotometer (Beckman coulter, DU730) and the integrity of RNA sample was verified by agarose gel electrophoresis. […]

PPARγ2 = experiment: RT-PCR analysis of visceral fat tissues: PPARγ2 gene expression; type: in vivo, mice; details: nonenal supplemented to the HFD vs HFD; to levels similar for the Chow group
Source text: as §1, §3, §4

aP2 = experiment: RT-PCR analysis of visceral fat tissues: aP2 gene expression; type: in vivo, mice; details: nonenal supplemented to the HFD vs HFD; to levels similar for the Chow group
Source text: as §1, §3, §4

TNF-α = experiment: RT-PCR analysis of visceral fat tissues: TNF-α gene expression; type: in vivo, mice; details: feeding nonenal in HFD vs HFD
Source text: as §1, §3, §4

IL-6 = experiment: RT-PCR analysis of visceral fat tissues: IL-6 gene expression; type: in vivo, mice; details: feeding nonenal in HFD vs HFD
Source text: as §1, §3, §4

rats = details: cited from earlier work
microbial growth = details: cited from earlier work
[4] = 0.2% nonenal in high-fat diet, as compared to HFD
[5] = 0.2% nonenal in high-fat diet, as compared to HFD group

CCCCCC/C=C/C=O [nonenal, trans-2-nonenal]
decrease of body weight gain (C57BL/6J mice [1]; 0.2% nonenal in high-fat diet (NED), as compared to HFD): 49% | weight of epididymal fat-pad (C57BL/6J mice [1]; [4]): significantly reduced | weight of mesenteric fat-pad (C57BL/6J mice [1]; [4]): significantly reduced | weight of perirenal fat-pad (C57BL/6J mice [1]; [4]): significantly reduced | weight of retroperitoneal fat-pad (C57BL/6J mice [1]; [4]): significantly reduced | reduction of total visceral fat weight (C57BL/6J mice [1]; NED group vs HFD group): 59% | reduction of fasting blood sugar level (C57BL/6J mice [2]; [4]): 31% | lowering of plasma LDL+VLDL cholesterol level (C57BL/6J mice [2]; [5]): 20% | lowering of plasma free fatty acid level (C57BL/6J mice [2]; [5]): 41% | lowering of plasma total cholesterol level (C57BL/6J mice [2]; [5]): 19% | lowering of plasma triglyceride level (C57BL/6J mice [2]; [5]): 37% | decrease of plasma activity of ALT (C57BL/6J mice [2]; NED group vs HFD group): 28% | decrease of plasma activity of AST (C57BL/6J mice [2]; NED group vs HFD group): 31% | decrease of cholesterol level in liver tissue (C57BL/6J mice [3]): 75% | decrease of free fatty acid level in liver tissue (C57BL/6J mice [3]): 74% | decrease of triglyceride level in liver tissue (C57BL/6J mice [3]): 78% | expression of C/EBPα gene (mRNA) in visceral fat tissues (C/EBPα): significantly decreased | expression of PPARγ2 gene (mRNA) in visceral fat tissues (PPARγ2): significantly decreased | expression of aP2 gene (mRNA) in visceral fat tissues (aP2): significantly decreased | HFD-induced elevation in the expression of TNF-α in visceral fat tissues (TNF-α): significantly reversed | HFD-induced elevation in the expression of IL-6 in visceral fat tissues (IL-6): significantly reversed | LD50 (rats): more than 5,000 mg/kg | microbial growth inhibitory effects (microbial growth): microbial growth inhibitory effects
